Experimental data: US20210261642A1, “SOLUBILITY OF GLP-1 PEPTIDE” (Novo Nordisk A/S, priority 2017, published 2021)

Assay: Assay (I): Determination of Solubility (96-well plate, pH 3.0-11.0, organic solvent 0-70% w/w, UV absorption at 280 nm)
Format: physicochemical
Settings: Method 1
Method: Assay (I): Determination of Solubility
96-Well Plate Preparation
96-well plates containing target peptide in a solid form were prepared in one of two ways:
Method 1 (evaporation): Addition of 100 μl stock solution of said peptide at a concentration of 4-6 mg/ml to each well of a 96-well half area plate (150 μl well size). Subsequently the solvent was evaporated by applying a vacuum until the solvent was completely removed.
Method 2 (precipitation): Addition of a certain volume of a stock solution of said peptide containing to each well of a 96-well half area plate followed by the addition of a certain volume of concentrated phosphoric acid to obtain a pH of 4.6 followed by addition of a certain volume of ethanol resulting in a final ethanol concentration of 20% v/v. Subsequently the plate was stored at 4° C. for 1 h and then centrifuged at 4,000 rpm for 20 min. Finally the supernatant was removed. The concentration of the stock solution was chosen in a way that the final amount of peptide after supernatant removal was >0.4 mg per well.
In both cases the stock solution was prepared by adding de-ionized water to a certain amount of powder of said peptide followed by a stepwise addition of small amounts of a concentrated sodium hydroxide solution until said peptide was completely in solution.
To determine solubility of a target peptide at different pH and organic solvent concentrations, two different buffer systems were used in independent experiments to cover the whole range from pH 3.0 to pH 11.0. Buffer system 1 covers pH 3.0-7.5 and buffer system 2 covers pH 7.5-11.0. For each buffer system 96 different solvent compositions were premixed in the following way: • 1. A low pH buffer (adjusted to either pH 3.0 or pH 7.5) and a high pH buffer (adjusted to either pH 7.5 or pH 11.0) were mixed at 8 different ratios to obtain values between pH 3.0 and pH 7.5 or pH 7.5 and pH 11.0, respectively. The total volume after mixing was 300 μl. • 2. 12 different amounts of organic solvent were then added to these buffers to obtain organic solvent (e.g. ethanol) concentrations between 0 and 70% w/w. • 3. Water was then added to obtain a total weight of 1.0 g of solvent in each well.
After preparing the 96 different solvent systems, 100 μl of each system was transferred to the 96-well plate containing the solid form of the target peptide (prepared as described in the section “96-well plate preparation”). The plate was then stored at a given temperature (between 5° C. and 70° C.) for a given time on a rotating shaker set to 400 rpm. At regular time intervals the plate was centrifuged (4,000 rpm for 10 min) and a 10 μl sample was taken from each well. The samples were then analysed by UV absorption at 280 nm for peptide quantification. Peptide concentration results are given as UV absorption at 280 nm of the sample subtracted UV absorption at 280 nm of a well comprising 10 μl water.
The buffers used were as follows: • Buffer system 1 (for the pH range from pH 3.0-7.5)
• Buffer system 2 (for the pH ranae from pH 7.5-11.0)
Solubility of liraglutide was determined using Assay (I) described herein. Liraglutide was prepared using Method 1 (evaporation) or Method 2 (precipitation) as described in subsection “96-well plate preparation”.

Peptide concentration after 5 min (MeCN 19.1% w/w, pH 8.5, 5° C.): 1.2 mg/mL
Peptide concentration after 180 min (MeCN 19.1% w/w, pH 8.5, 5° C.): 2.5 mg/mL
Peptide concentration after 24 h (MeCN 19.1% w/w, pH 8.5, 5° C.): >4.0 mg/mL
Peptide concentration after 5 min (MeCN 19.1% w/w, pH 9.0, 5° C.): 0.9 mg/mL
Peptide concentration after 180 min (MeCN 19.1% w/w, pH 9.0, 5° C.): 2.3 mg/mL
Peptide concentration after 24 h (MeCN 19.1% w/w, pH 9.0, 5° C.): >4.0 mg/mL
Peptide concentration after 5 min (MeCN 19.1% w/w, pH 9.5, 5° C.): 1.1 mg/mL
Peptide concentration after 180 min (MeCN 19.1% w/w, pH 9.5, 5° C.): 3.3 mg/mL
Peptide concentration after 24 h (MeCN 19.1% w/w, pH 9.5, 5° C.): >4.0 mg/mL
Peptide concentration after 5 min (MeCN 19.1% w/w, pH 10.0, 5° C.): 1.4 mg/mL
Peptide concentration after 180 min (MeCN 19.1% w/w, pH 10.0, 5° C.): 3.8 mg/mL
Peptide concentration after 24 h (MeCN 19.1% w/w, pH 10.0, 5° C.): >4.0 mg/mL
Peptide concentration after 5 min (MeCN 19.1% w/w, pH 10.5, 5° C.): 1.4 mg/mL
Peptide concentration after 180 min (MeCN 19.1% w/w, pH 10.5, 5° C.): >4.0 mg/mL
Peptide concentration after 24 h (MeCN 19.1% w/w, pH 10.5, 5° C.): >4.0 mg/mL
Peptide concentration after 5 min (MeCN 19.1% w/w, pH 11.0, 5° C.): 1.0 mg/mL
Peptide concentration after 180 min (MeCN 19.1% w/w, pH 11.0, 5° C.): 2.6 mg/mL
Peptide concentration after 24 h (MeCN 19.1% w/w, pH 11.0, 5° C.): >4.0 mg/mL
Peptide concentration after 5 min (MeCN 25.5% w/w, pH 8.0, 5° C.): 1.1 mg/mL
Peptide concentration after 180 min (MeCN 25.5% w/w, pH 8.0, 5° C.): 3.2 mg/mL
Peptide concentration after 24 h (MeCN 25.5% w/w, pH 8.0, 5° C.): >4.0 mg/mL
Peptide concentration after 5 min (MeCN 25.5% w/w, pH 8.5, 5° C.): 1.4 mg/mL
Peptide concentration after 180 min (MeCN 25.5% w/w, pH 8.5, 5° C.): 3.5 mg/mL
Peptide concentration after 24 h (MeCN 25.5% w/w, pH 8.5, 5° C.): >4.0 mg/mL
Peptide concentration after 5 min (MeCN 25.5% w/w, pH 9.0, 5° C.): 0.5 mg/mL
Peptide concentration after 180 min (MeCN 25.5% w/w, pH 9.0, 5° C.): >4.0 mg/mL
Peptide concentration after 24 h (MeCN 25.5% w/w, pH 9.0, 5° C.): >4.0 mg/mL
Peptide concentration after 5 min (MeCN 25.5% w/w, pH 9.5, 5° C.): 1.2 mg/mL
Peptide concentration after 180 min (MeCN 25.5% w/w, pH 9.5, 5° C.): >4.0 mg/mL
Peptide concentration after 24 h (MeCN 25.5% w/w, pH 9.5, 5° C.): >4.0 mg/mL
Peptide concentration after 5 min (MeCN 25.5% w/w, pH 10.0, 5° C.): 1.4 mg/mL
Peptide concentration after 180 min (MeCN 25.5% w/w, pH 10.0, 5° C.): 3.4 mg/mL
Peptide concentration after 24 h (MeCN 25.5% w/w, pH 10.0, 5° C.): >4.0 mg/mL
Peptide concentration after 5 min (MeCN 25.5% w/w, pH 10.5, 5° C.): 1.5 mg/mL
Peptide concentration after 180 min (MeCN 25.5% w/w, pH 10.5, 5° C.): 3.8 mg/mL
Peptide concentration after 24 h (MeCN 25.5% w/w, pH 10.5, 5° C.): >4.0 mg/mL
Peptide concentration after 5 min (MeCN 25.5% w/w, pH 11.0, 5° C.): 1.0 mg/mL
Peptide concentration after 180 min (MeCN 25.5% w/w, pH 11.0, 5° C.): 3.1 mg/mL
Peptide concentration after 24 h (MeCN 25.5% w/w, pH 11.0, 5° C.): >4.0 mg/mL
Peptide concentration after 5 min (MeCN 31.8% w/w, pH 8.0, 5° C.): 0.9 mg/mL
Peptide concentration after 180 min (MeCN 31.8% w/w, pH 8.0, 5° C.): 2.7 mg/mL
Peptide concentration after 24 h (MeCN 31.8% w/w, pH 8.0, 5° C.): >4.0 mg/mL
Peptide concentration after 5 min (MeCN 31.8% w/w, pH 8.5, 5° C.): 2.1 mg/mL
Peptide concentration after 180 min (MeCN 31.8% w/w, pH 8.5, 5° C.): 3.6 mg/mL
Peptide concentration after 24 h (MeCN 31.8% w/w, pH 8.5, 5° C.): >4.0 mg/mL
Peptide concentration after 5 min (MeCN 31.8% w/w, pH 9.0, 5° C.): 0.8 mg/mL
Peptide concentration after 180 min (MeCN 31.8% w/w, pH 9.0, 5° C.): 2.7 mg/mL
Peptide concentration after 24 h (MeCN 31.8% w/w, pH 9.0, 5° C.): >4.0 mg/mL
Peptide concentration after 5 min (MeCN 31.8% w/w, pH 9.5, 5° C.): 0.9 mg/mL
Peptide concentration after 180 min (MeCN 31.8% w/w, pH 9.5, 5° C.): 3.3 mg/mL
Peptide concentration after 24 h (MeCN 31.8% w/w, pH 9.5, 5° C.): >4.0 mg/mL
SMILES: CCCCCCCCCCCCCCCC(=O)N[C@@H](CCC(=O)NCCCC[C@H](NC(=O)[C@H](C)NC(=O)[C@H](C)NC(=O)[C@H](CCC(N)=O)NC(=O)CNC(=O)[C@H](CCC(=O)O)NC(=O)[C@H](CC(C)C)NC(=O)[C@H](Cc1ccc(O)cc1)NC(=O)[C@H](CO)NC(=O)[C@H](CO)NC(=O)[C@@H](NC(=O)[C@H](CC(=O)O)NC(=O)[C@H](CO)NC(=O)[C@@H](NC(=O)[C@H](Cc1ccccc1)NC(=O)[C@@H](NC(=O)CNC(=O)[C@H](CCC(=O)O)NC(=O)[C@H](C)NC(=O)[C@@H](N)Cc1cnc[nH]1)[C@@H](C)O)[C@@H](C)O)C(C)C)C(=O)N[C@@H](CCC(=O)O)C(=O)N[C@@H](Cc1ccccc1)C(=O)N[C@H](C(=O)N[C@@H](C)C(=O)N[C@@H](Cc1c[nH]c2ccccc12)C(=O)N[C@@H](CC(C)C)C(=O)N[C@H](C(=O)N[C@@H](CCCNC(=N)N)C(=O)NCC(=O)N[C@@H](CCCNC(=N)N)C(=O)NCC(=O)O)C(C)C)[C@@H](C)CC)C(=O)O [liraglutide, Arg34,Lys26-(N-epsilon-(gamma-L-glutamyl(N-alfa-hexadecanoyl)))-GLP-1(7-37)]
